# From US6897244B2, “Dihydronootkatone and tetrahydronootkatone as repellents to arthropods” (Board of Supervisors of Louisiana State University and …, priority 2002, dated 2005)
# Entries after “also recorded” stand apart in the source; their conditions may differ.
# How the values were obtained:
# [1] = system: Formosan subterranean termites; assay: Petri dish treated/untreated sand bioassay for repelling activity against termites; type: in vivo, Coptotermes formosanus; set-up: key to percent of termites on untreated sand vs expected value of 50% (Chi-Square, p≦0.05): “−” indicates the test was not significantly different from the expected value; “+” indicates the test was significantly different from the expected value
# Method: A carton nest (colony A) of Formosan subterranean termites was collected in Algiers, Louisiana in November 1997, and held in 250-liter cans. The cans were filled with pine as a food source, and kept at a temperature range of 24-26° C. Moistened corrugated cardboard rolls were used to retrieve termites from the cans. Once the termites migrated to the cardboard rolls, they were gently knocked from the cardboard rolls into clean rectangular plastic trays (40 cm×50 cm). Retrieved termites were isolated from debris by allowing them to cling to sheets of moistened paper towels. The average weight of each termite was 1.21 mg.
# To test for effectiveness of nootkatone, 1,10-dihydronootkatone and tetrahydronootkatone in repelling termites, a bioassay was conducted using Petri dishes (5 cm diameter and 1 cm height). To ensure adequate moisture for the termites, 1 ml of a hot agar solution (1.5% in H2O) was spread on the bottom of the Petri dish. After the agar cooled, sand that was treated as described below was spread on the bottom of the Petri dish. For the treated sand, purified 1,10-dihydronootkatone or tetrahydronootkatone were dissolved in 2 ml ethanol, and then diluted to achieve final concentrations of 1, 2, 5, 12.5, 25, 50, and 100 μg/g sand. The solution was mixed with 1 g sand that had been autoclaved and cooled. The control sand was autoclaved sand with only 200 μl ethanol added. One half of the surfaces in the Petri dishes were covered with 1 g treated sand, and the other half with 1 g untreated sand.
# The prepared Petri dishes were then used to evaluate the repelling activity against Formosan subterranean termites. Ten worker termites were added to each Petri dish, and the dishes were covered to eliminate light. Five replicate dishes were tested for each concentration and for the control. Termite position was recorded every 15 min during the first hour of testing by counting the number of termites observed on untreated sand. After the first hour, termite position was recorded each hour for 3 hr.
# Differences between the percent of termites on untreated sand and an expected value were statistically analyzed by a Chi-Square analysis, using an expected value of 50% and a significance level of p≦0.05.
# [2] = system: salt marsh mosquitoes, Aedes vexans; assay: Mosquito bites on arm treated topically with 5% solution, placed in mosquito cage; type: in vivo; details: for Number of Mosquito Bites in a 2 min Period: arm treated with 5 ml of 5% solution
# Method: To test the repellence of tetrahydronootkatone on mosquitos, tetrahydronootkatone was dissolved in 70% isopropyl alcohol to a final concentration of 5%. This solution was used to topically apply to the arms of two male volunteers. Each volunteer cleaned each arm thoroughly with soap and water, and then wiped down each arm with 70% isopropyl alcohol. The right arm of each volunteer was treated with 5 ml of the 5% tetrahydronootkatone solution. The left arm served as a control. To test for mosquito repellence, each arm of a single volunteer was placed into a cage of freshly collected mosquitoes, about 100 mosquitos per cage. The mosquitoes were salt marsh mosquitoes, Aedes […]. After 2 min, the number of mosquito bites on each arm were counted. Tests were run at 5 min, 1 hr, 2 hr, and 3 hr after the initial application of tetrahydronootkatone.
# [3] = system: biting midges (family Ceratopogonidae, genus Culicoides); assay: Field test of 5% solution applied to faces against biting midges in a marsh; type: in vivo; details: 5% solution in 70% isopropyl alcohol applied to faces of two volunteers
# Method: To test the repellence of tetrahydronootkatone on biting midges (family Ceratopogonidae, genus Culicoides), tetrahydronootkatone was dissolved in 70% isopropyl alcohol to a final concentration of 5%. This solution was used to topically apply to the faces of two adult male volunteers. […] The six males went into a southern Louisiana marsh, an area known for biting midges.
compound,measurement,setting,value
"CC(C)C1CCC2CC(=O)CC(C)C2(C)C1 (stereo not drawn) [Tetrahydronootkatone, 1,4,4a,5,6,7,8,10-octahydro-6-isopropl-4,4a-dimethyl-2(1H)-naphthalenone]","percent of termites on untreated sand vs expected value of 50% (Chi-Square, p≦0.05)","[1]; 1 μg/dish, 0.25 hour",−
same,"percent of termites on untreated sand vs expected value of 50% (Chi-Square, p≦0.05)","[1]; 1 μg/dish, 0.5 hour",−
same,"percent of termites on untreated sand vs expected value of 50% (Chi-Square, p≦0.05)","[1]; 1 μg/dish, 0.75 hour",−
same,"percent of termites on untreated sand vs expected value of 50% (Chi-Square, p≦0.05)","[1]; 1 μg/dish, 1 hour",−
same,"percent of termites on untreated sand vs expected value of 50% (Chi-Square, p≦0.05)","[1]; 1 μg/dish, 2 hour",−
same,"percent of termites on untreated sand vs expected value of 50% (Chi-Square, p≦0.05)","[1]; 1 μg/dish, 3 hour",−
same,"percent of termites on untreated sand vs expected value of 50% (Chi-Square, p≦0.05)","[1]; 2 μg/dish, 0.25 hour",+
same,"percent of termites on untreated sand vs expected value of 50% (Chi-Square, p≦0.05)","[1]; 2 μg/dish, 0.5 hour",+
same,"percent of termites on untreated sand vs expected value of 50% (Chi-Square, p≦0.05)","[1]; 2 μg/dish, 0.75 hour",+
same,"percent of termites on untreated sand vs expected value of 50% (Chi-Square, p≦0.05)","[1]; 2 μg/dish, 1 hour",+
same,"percent of termites on untreated sand vs expected value of 50% (Chi-Square, p≦0.05)","[1]; 2 μg/dish, 2 hour",+
same,"percent of termites on untreated sand vs expected value of 50% (Chi-Square, p≦0.05)","[1]; 2 μg/dish, 3 hour",+
same,"percent of termites on untreated sand vs expected value of 50% (Chi-Square, p≦0.05)","[1]; 5 μg/dish, 0.25 hour",−
same,"percent of termites on untreated sand vs expected value of 50% (Chi-Square, p≦0.05)","[1]; 5 μg/dish, 0.5 hour",+
same,"percent of termites on untreated sand vs expected value of 50% (Chi-Square, p≦0.05)","[1]; 5 μg/dish, 0.75 hour",+
same,"percent of termites on untreated sand vs expected value of 50% (Chi-Square, p≦0.05)","[1]; 5 μg/dish, 1 hour",+
same,"percent of termites on untreated sand vs expected value of 50% (Chi-Square, p≦0.05)","[1]; 5 μg/dish, 2 hour",+
same,"percent of termites on untreated sand vs expected value of 50% (Chi-Square, p≦0.05)","[1]; 5 μg/dish, 3 hour",+
same,"percent of termites on untreated sand vs expected value of 50% (Chi-Square, p≦0.05)","[1]; 12.5 μg/dish, 0.25 hour",+
same,"percent of termites on untreated sand vs expected value of 50% (Chi-Square, p≦0.05)","[1]; 12.5 μg/dish, 0.5 hour",+
same,"percent of termites on untreated sand vs expected value of 50% (Chi-Square, p≦0.05)","[1]; 12.5 μg/dish, 0.75 hour",+
same,"percent of termites on untreated sand vs expected value of 50% (Chi-Square, p≦0.05)","[1]; 12.5 μg/dish, 1 hour",+
same,"percent of termites on untreated sand vs expected value of 50% (Chi-Square, p≦0.05)","[1]; 12.5 μg/dish, 2 hour",+
same,"percent of termites on untreated sand vs expected value of 50% (Chi-Square, p≦0.05)","[1]; 12.5 μg/dish, 3 hour",+
same,"percent of termites on untreated sand vs expected value of 50% (Chi-Square, p≦0.05)","[1]; 25 μg/dish, 0.25 hour",−
same,"percent of termites on untreated sand vs expected value of 50% (Chi-Square, p≦0.05)","[1]; 25 μg/dish, 0.5 hour",+
same,"percent of termites on untreated sand vs expected value of 50% (Chi-Square, p≦0.05)","[1]; 25 μg/dish, 0.75 hour",+
same,"percent of termites on untreated sand vs expected value of 50% (Chi-Square, p≦0.05)","[1]; 25 μg/dish, 1 hour",+
same,"percent of termites on untreated sand vs expected value of 50% (Chi-Square, p≦0.05)","[1]; 25 μg/dish, 2 hour",+
same,"percent of termites on untreated sand vs expected value of 50% (Chi-Square, p≦0.05)","[1]; 25 μg/dish, 3 hour",+
same,"percent of termites on untreated sand vs expected value of 50% (Chi-Square, p≦0.05)","[1]; 50 μg/dish, 0.25 hour",+
same,"percent of termites on untreated sand vs expected value of 50% (Chi-Square, p≦0.05)","[1]; 50 μg/dish, 0.5 hour",+
same,"percent of termites on untreated sand vs expected value of 50% (Chi-Square, p≦0.05)","[1]; 50 μg/dish, 0.75 hour",+
same,"percent of termites on untreated sand vs expected value of 50% (Chi-Square, p≦0.05)","[1]; 50 μg/dish, 1 hour",+
same,"percent of termites on untreated sand vs expected value of 50% (Chi-Square, p≦0.05)","[1]; 50 μg/dish, 2 hour",+
same,"percent of termites on untreated sand vs expected value of 50% (Chi-Square, p≦0.05)","[1]; 50 μg/dish, 3 hour",+
same,"percent of termites on untreated sand vs expected value of 50% (Chi-Square, p≦0.05)","[1]; 100 μg/dish, 0.25 hour",+
same,"percent of termites on untreated sand vs expected value of 50% (Chi-Square, p≦0.05)","[1]; 100 μg/dish, 0.5 hour",+
same,"percent of termites on untreated sand vs expected value of 50% (Chi-Square, p≦0.05)","[1]; 100 μg/dish, 0.75 hour",+
same,"percent of termites on untreated sand vs expected value of 50% (Chi-Square, p≦0.05)","[1]; 100 μg/dish, 1 hour",+
same,"percent of termites on untreated sand vs expected value of 50% (Chi-Square, p≦0.05)","[1]; 100 μg/dish, 2 hour",+
same,"percent of termites on untreated sand vs expected value of 50% (Chi-Square, p≦0.05)","[1]; 100 μg/dish, 3 hour",+
same,factor by which the effective termite-repellent concentration is lower than that of nootkatone,[1]; relative to nootkatone,50
same,concentration effective as termite repellent,[1]; time periods up to 3 hr,2 µg
same,mosquito repellence,"[2]; 5% solution, time periods up to 3 hr after the initial application",effective mosquito repellent
same,Number of Mosquito Bites in a 2 min Period,"[2]; Volunteer 1, 5 min after application",0
same,Number of Mosquito Bites in a 2 min Period,"[2]; Volunteer 1, 1 hr after application",0
same,Number of Mosquito Bites in a 2 min Period,"[2]; Volunteer 1, 2 hr after application",0
same,Number of Mosquito Bites in a 2 min Period,"[2]; Volunteer 1, 3 hr after application",0
same,Number of Mosquito Bites in a 2 min Period,"[2]; Volunteer 2, 5 min after application",0
same,Number of Mosquito Bites in a 2 min Period,"[2]; Volunteer 2, 1 hr after application",0
same,Number of Mosquito Bites in a 2 min Period,"[2]; Volunteer 2, 2 hr after application",0
same,Number of Mosquito Bites in a 2 min Period,"[2]; Volunteer 2, 3 hr after application",2
same,repellence of biting midges,[3],fewer problems with biting midges; also recorded: effective repellent for biting midges
